From ChEMBL document CHEMBL1141926, “Synthesis and anthelmintic activity of 7-substituted 3,4a-dimethyl-4a,5a,8a,8b-tetrahydro-6H-pyrrolo[3',4':4,5]furo[3,2-b]pyridine-6,8(7H)-diones” (Bioorg Med Chem Lett, 2005)

Columns and labels:
Haemonchus contortus [1] = experiment: In vivo percentage Haemonchus contortus egg reduction in sheep at dose 0.25 mg/kg body weight; type: functional
[2] = Partition coefficient (logP) (HPLC); type: physicochemical; settings: octanol/water
Haemonchus contortus [3] = experiment: In vivo percentage Haemonchus contortus egg reduction in sheep at dose 0.10 mg/kg body weight; type: functional; settings: dose 0.1 mg/kg
Haemonchus contortus [4] = experiment: In vivo percentage Haemonchus contortus egg reduction in sheep at dose 0.05 mg/kg body weight; type: functional
Haemonchus contortus [5] = experiment: In vivo percentage Haemonchus contortus egg reduction in sheep at dose 20 mg/kg body weight; type: functional
Haemonchus contortus [6] = experiment: In vivo percentage Haemonchus contortus egg reduction in sheep at dose 0.25 mg/kg body weight; Range 50-75%; type: functional
Haemonchus contortus [7] = experiment: In vivo percentage Haemonchus contortus egg reduction in sheep at dose 0.01 mg/kg body weight; type: functional
Haemonchus contortus [8] = experiment: In vivo percentage Haemonchus contortus egg reduction in sheep at dose. 20 mg/kg body weight; type: functional, organism-based; set-up: dose 20 mg/kg; settings: at 20 mg/kg

Compound: CCN1C(=O)[C@@H]2[C@H](O[C@@]3(C)C=C(C)C=N[C@H]23)C1=O
- Reduction (Haemonchus contortus [1]): >=95%
- logP [2]: 0.46

Compound: CC1=CC2(C)OC3C(=O)N(C)C(=O)C3C2N=C1 (stereo not drawn)
- Reduction (Haemonchus contortus [3]): >=95%
- logP [2]: < 0

Compound: CC1=CC2(C)OC3C(=O)N([C@@H](C)c4ccccc4)C(=O)C3C2N=C1 (stereo partly drawn)
- Reduction (Haemonchus contortus [4]): >=95%
- logP [2]: 1.7

Compound: CC1=CC2(C)OC3C(=O)N(C4CC4)C(=O)C3C2N=C1 (stereo not drawn)
- Reduction (Haemonchus contortus [4]): >=95%
- logP [2]: 0.5

Compound: COC(=O)Nc1nc2cc(C(=O)c3ccccc3)ccc2[nH]1 [MEBENDAZOLE]
- Reduction (Haemonchus contortus [5]): >=95%

Compound: CCN1C(=O)[C@H]2[C@@H](O[C@]3(C)C=C(C)C=N[C@@H]23)C1=O
- Reduction (Haemonchus contortus [6]): 75%
- logP [2]: 0.46

Compound: CCN1C(=O)C2OC3(C)C=C(C)C=NC3C2C1=O (stereo not drawn)
- logP [2]: 0.46
- Reduction (Haemonchus contortus [7]): >=95%

Compound: IVERMECTIN
- Reduction (Haemonchus contortus [8]): > 95%

Compound: CC1=CC2(C)OC3C(=O)N(Cc4ccccc4)C(=O)C3C2N=C1 (stereo not drawn)
- Reduction (Haemonchus contortus [3]): >=95%
- logP [2]: 1.51

Compound: CCCCN1C(=O)C2OC3(C)C=C(C)C=NC3C2C1=O (stereo not drawn)
- Reduction (Haemonchus contortus [4]): >=95%
- logP [2]: 1.3
